Literature values as cited in patent publication US20160075995A1, “SWEAT GLAND-DERIVED STEM CELLS AND METHODS OF USE” (priority 2014, published 2016).

Key:
[1] = DMSO
[2] = published reports

## c1cc(-c2cnn3cc(-c4ccc(OCCN5CCCCC5)cc4)cnc23)ccn1 [dorsomorphin]
[1]
  solubility: soluble in DMSO
[2]
  toxicity: low toxicity
